{"source": "patent US6399093B1", "about": "“Method and composition to treat musculoskeletal disorders” (Advanced Medical Instruments, priority 1999, dated 2002)", "origin": "cited, not measured here", "key": {"[1]": {"details": "oral"}, "[2]": {"details": "oral diclofenac group"}, "[3]": {"details": "after oral administration"}}, "data": [{"smiles": "COc1cc2c(c(OC)c1OC)-c1ccc(OC)c(=O)cc1[C@@H](NC(C)=O)CC2", "note": "[colchicine, Colchicine]", "values": [{"measurement": "Patients unable to tolerate an optimal dose because of gastrointestinal side effects", "setting": "[1]", "value": "Eighty"}]}, {"smiles": "O=C(O)Cc1ccccc1Nc1c(Cl)cccc1Cl", "note": "[diclofenac]", "values": [{"measurement": "Number of GI reactions relative to the topical eltenac group", "setting": "[2]", "value": "three"}]}, {"smiles": "N[C@H]1C(O)O[C@H](CO)[C@@H](O)[C@@H]1O.O=S(=O)(O)O", "note": "(stereo partly drawn) [glucosamine sulfate]", "values": [{"measurement": "Onset of clinical improvement of symptoms", "setting": "[3]", "value": "one"}]}]}
